# Laboratory results: the NIST ThermoML archive (doi:10.1021/acs.jced.6b01038)
# Numbers after ± are expanded uncertainties.
# Key:
# [1] = 298.15 K; 101.3 kPa; Liquid; Vibrating tube method
# [2] = refractive index (Na D-line) (dimensionless); details: 298.15 K; 101.3 kPa; Liquid; Standard Abbe refractometry
Compound,mass density [1],refractive index [2]
CCN(CC)CCO [(diethylamino)ethanol],880 ± 5 kg/m3,1.43833 ± 0.001
"CNCCCN [N-methyl-1,3-diaminopropane]",848 ± 5 kg/m3,1.44564 ± 0.0012
CN(CCO)CCO [N-methyldiethanolamine],1037 ± 2 kg/m3,1.4674 ± 0.0011
O [water],–,1.33249 ± 0.001
